From ChEMBL document CHEMBL1201862, “PubChem BioAssay data set” (2004)
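The compound was tested at five concentrations on cells cultured in 96-well plates, with a 48-hour exposure period. Here, GI50 denotes the concentration required for 50% inhibition of growth.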 Calls of active or inactive are those of the source. Rule as the data show it: active = GI50 up to about 1.1 µM and inactive = higher.

Key:
Assay in all cases: inhibition of tumour cell growth, NCI panel, 48 h
KM-20L2 = tested on: KM-20L2
DLD-1 = tested on: DLD-1
HOP-18 = tested on: HOP-18
LXFL 529 = tested on: LXFL 529
DMS-114 = tested on: DMS-114
DMS-273 = tested on: DMS-273
XF498 = tested on: XF498
RXF 631 = tested on: RXF 631
M19-MEL = tested on: M19-MEL

Measured: GI50

O=C1c2ccccc2C(=O)C1C(c1ccc([N+](=O)[O-])cc1)C1C(=O)c2ccccc2C1=O
inactive: KM-20L2 > 100 µM | DLD-1 34.8 µM | HOP-18 > 100 µM | LXFL 529 30.8 µM | DMS-114 > 10 µM | DMS-273 99.1 µM | XF498 55.2 µM | RXF 631 12.1 µM

CCOC(=O)/C(Br)=C1\OC(=O)c2ccccc2-c2ccccc21
inactive: DLD-1 91.6 µM | M19-MEL 51.1 µM | HOP-18 91.8 µM | LXFL 529 29.4 µM | DMS-114 23.1 µM | DMS-273 41.4 µM | XF498 65.8 µM | RXF 631 33.3 µM

COc1ccccc1/C=C1\CCC(CN2CCOCC2)C1=O (stereo not drawn)
inactive: KM-20L2 16.6 µM | DLD-1 3.84 µM | M19-MEL 6.7 µM | HOP-18 17.9 µM | LXFL 529 3.28 µM | DMS-114 16 µM | DMS-273 13.6 µM | XF498 16.4 µM | RXF 631 11.9 µM

O=C(O)CSc1nnc(-c2ccc(O)cc2)[nH]1
inactive: KM-20L2 > 100 µM | DLD-1 > 100 µM | M19-MEL > 100 µM | HOP-18 > 100 µM | DMS-114 > 100 µM | DMS-273 > 100 µM | XF498 > 100 µM | RXF 631 > 100 µM
